Laboratory results reported in US20260317314A1, “NITROGEN-CONTAINING HETEROCYCLIC COMPOUND AND USE THEREOF” (JIANGSU DEYUAN PHARMACEUTICAL CO.,LTD., priority 2023, published 2026).

Legend:
CYP3A4 = target: T1, CYP3A4 (Homo sapiens, UniProt P08684); assay: Human liver microsome CYP inhibition assay, CYP3A4; type: in vitro ADME; details: role: inhibitor; human liver microsomes, probe substrate; read-out: CYP3A4 half maximal inhibitory concentration IC50
T1 construct: Mixed human liver microsomes (HLM) were purchased from Corning Inc; tissue Corning Inc; host or cells: mixed human liver microsomes (HLM)
Procedure: (§1) Experimental objective: To evaluate the inhibitory activity of the test substance on human liver microsomal cytochrome P450 isoenzymes (CYP1A2, CYP2C9, CYP2C19, CYP2D6, CYP3A4) using a 5-in-1 probe substrate for CYP isoenzymes.
(§2) Mixed human liver microsomes (HLM) were purchased from Corning Inc. (Steuben, New York, USA) and stored at temperatures below −70° C. prior to use.
(§3) The working solution of the test substance, which had been diluted to a series of concentrations, was added to an incubation system containing human liver microsomes, probe substrates, and auxiliary factors of the circulatory system. A control containing solvent but no test substance served as an enzyme activity control (100%). The concentration of metabolites produced from probe substrates in the samples was determined using Liquid Chromatography-Tandem Mass Spectrometry (LC-MS/MS) method. Non-linear regression analysis of the average percentage activity of the test substance against its concentration was conducted using SigmaPlot (V.11). The IC50 values were calculated using a three-parameter or four-parameter inverse log equation.

CYP2C19 = target: T2, CYP2C19 (Homo sapiens, UniProt P33261); assay: Human liver microsome CYP inhibition assay, CYP2C19; type: in vitro ADME; details: role: inhibitor; human liver microsomes, probe substrate; read-out: CYP2C19 half maximal inhibitory concentration IC50
T2 construct: Mixed human liver microsomes (HLM) were purchased from Corning Inc; tissue Corning Inc; host or cells: mixed human liver microsomes (HLM)
Procedure: as §1, §2, §3

[1] = In vitro liver microsome metabolic stability study; type: in vitro ADME; details: human liver microsomes 0.5 mg/mL, compound 1 μM, 37° C., up to 60 minutes; read-out: Intrinsic hepatic clearance CLint(liver)
Procedure: Stock solution: 10 mM in DMSO.
Only 54 μL of microsomal working solution, 6 μL of NADPH regeneration system working solution, and 180 μL of stop solution were added to the blank plate.
LC-MS/MS analysis was performed.

[2] = Plasma protein binding rate test, SD rat (equilibrium dialysis); type: in vitro ADME; details: 37° C., read-out: Plasma protein binding rate (%) in SD rats (converted)
Description: (§4) The sample was thoroughly mixed.

[3] = Permeability test in MDR1-MDCKII monolayer cell model; type: in vitro ADME; details: dog; for efflux ratio at 2.5 h, 2 µM: MDCK-MDR1, pH 7.4, ER=Papp(BA)/Papp(AB); for Papp A→B at 2.5 h, 2 µM: MDCK-MDR1, pH 7.4, pH 7.40, 2.5 hours, 37±1° C., read-out: Apparent permeability coefficient (Papp (AB))
Procedure: Experimental objective: The permeability and efflux ratio of the compound of the present disclosure were determined using the MDR1-MDCKII monolayer cell model to assess its membrane permeability and potential for P-gp-mediated efflux transport.
Experimental protocol: MDR1-MDCKII cells (obtained from the Netherlands Cancer Institute) were seeded in 96-well plates (obtained from Corning) at a cell density of 3.33×10^5 cells/mL and cultured for 4 to 7 days to form confluent cell monolayers. Hank's balanced salt solution containing 10 mM HEPES (pH 7.40) was used as the transport buffer. The test compound was evaluated for bidirectional transport at a concentration of 2 μM, with the DMSO concentration in the incubation system maintained below 1%. After adding the samples, the cell plate was incubated at 37±1° C., 5% CO2, and saturated humidity for 2.5 hours. All samples were quantitatively analyzed using the LC-MS/MS method. The apparent permeability coefficient (Papp, cm/s) and efflux ratio (ER) were calculated using the following formula. Apparent permeability coefficient (Papp, cm/s) was calculated using the following formula: Papp=(dCr/dt)×Vr/(A×C0). Herein, dCr/dt represents the cumulative concentration of the compound at the receiving end per unit time (μM/s); Vr is the volume of the solution at the receiving end (with solution volumes at the apical and basolateral ends being 0.075 mL and 0.250 mL, respectively); A is the relative surface area of the cell monolayer (0.143 cm^2); C0 is the initial concentration of the test substance at the dosing end (μM) or the peak area ratio of the reference substance. The efflux ratio was calculated using the following formula: ER=Papp(BA)/Papp(AB).

[4] = Plasma protein binding rate test, cynomolgus monkey (equilibrium dialysis); type: in vitro ADME; details: 37° C., read-out: Plasma protein binding rate (%) in cynomolgus monkeys (converted)
Description: as §4

CYP1A2 = target: T3, CYP1A2 (Homo sapiens, UniProt P05177); assay: Human liver microsome CYP inhibition assay, CYP1A2; type: in vitro ADME; details: role: inhibitor; human liver microsomes, probe substrate; read-out: CYP1A2 half maximal inhibitory concentration IC50
T3 construct: Mixed human liver microsomes (HLM) were purchased from Corning Inc; tissue Corning Inc; host or cells: mixed human liver microsomes (HLM)
T3 sequence (P05177 1-516): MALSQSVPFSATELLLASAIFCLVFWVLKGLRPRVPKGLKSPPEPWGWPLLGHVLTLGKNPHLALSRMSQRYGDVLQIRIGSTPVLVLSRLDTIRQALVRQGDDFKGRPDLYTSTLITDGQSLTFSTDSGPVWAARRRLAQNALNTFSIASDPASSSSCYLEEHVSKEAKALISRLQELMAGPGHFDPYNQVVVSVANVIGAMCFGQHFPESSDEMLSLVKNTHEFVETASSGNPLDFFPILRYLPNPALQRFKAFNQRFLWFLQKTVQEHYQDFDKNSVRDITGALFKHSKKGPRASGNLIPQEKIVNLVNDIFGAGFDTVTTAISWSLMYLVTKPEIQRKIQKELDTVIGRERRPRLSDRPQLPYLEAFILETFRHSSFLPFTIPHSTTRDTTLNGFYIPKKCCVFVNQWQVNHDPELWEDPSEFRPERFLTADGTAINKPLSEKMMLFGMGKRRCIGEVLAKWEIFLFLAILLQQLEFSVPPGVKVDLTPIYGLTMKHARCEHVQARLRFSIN
Procedure: as §1, §2, §3

CYP2D6 = target: T4, CYP2D6 (Homo sapiens, UniProt P10635); assay: Human liver microsome CYP inhibition assay, CYP2D6; type: in vitro ADME; details: role: inhibitor; human liver microsomes, probe substrate; read-out: CYP2D6 half maximal inhibitory concentration IC50
T4 construct: Mixed human liver microsomes (HLM) were purchased from Corning Inc; tissue Corning Inc; host or cells: mixed human liver microsomes (HLM)
Procedure: as §1, §2, §3

[5] = Plasma protein binding rate test, human (equilibrium dialysis); type: in vitro ADME; details: 37° C.
Description: as §4

CYP2C9 = target: T5, CYP2C9 (Homo sapiens, UniProt P11712); assay: Human liver microsome CYP inhibition assay, CYP2C9; type: in vitro ADME; details: role: inhibitor; human liver microsomes, probe substrate; read-out: CYP2C9 half maximal inhibitory concentration IC50
T5 construct: Mixed human liver microsomes (HLM) were purchased from Corning Inc; tissue Corning Inc; host or cells: mixed human liver microsomes (HLM)
Procedure: as §1, §2, §3

human CYP11B2 = target: T6, human CYP11B2 (Homo sapiens, UniProt P19099); assay: In vitro activity assay of monoclonal cells overexpressing human CYP11B2; type: cell-based; details: G402 cells overexpressing human CYP11B2; substrate 11-deoxycorticosterone; 16 hours; aldosterone by LCMS/MS
T6 construct: expressed in transfected cells; host or cells: human renal leiomyoma G402 cell line (monoclonal cells overexpressing human CYP11B2)
T6 sequence (P19099 25-503): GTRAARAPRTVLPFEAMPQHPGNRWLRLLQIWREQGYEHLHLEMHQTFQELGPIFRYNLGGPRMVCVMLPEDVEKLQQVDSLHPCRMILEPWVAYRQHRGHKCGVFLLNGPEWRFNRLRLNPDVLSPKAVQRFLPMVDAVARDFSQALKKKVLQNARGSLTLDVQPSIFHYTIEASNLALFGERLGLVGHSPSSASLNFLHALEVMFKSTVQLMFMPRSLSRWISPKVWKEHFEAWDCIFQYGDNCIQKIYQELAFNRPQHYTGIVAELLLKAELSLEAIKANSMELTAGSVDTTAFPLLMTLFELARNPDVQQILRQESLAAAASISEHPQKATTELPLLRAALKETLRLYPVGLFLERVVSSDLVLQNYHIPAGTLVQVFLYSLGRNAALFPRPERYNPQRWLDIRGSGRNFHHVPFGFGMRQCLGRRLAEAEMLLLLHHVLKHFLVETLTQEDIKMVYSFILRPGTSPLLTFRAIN
Procedure: The human renal leiomyoma G402 cell line overexpressing human CYP11B2 was selected to serve as a compound activity screening system.
• 2) Compound details: The test compound was prepared as a 10 μM working concentration using DMSO.
Day 1: Cells were digested, and human renal leiomyoma G402 cells overexpressing human CYP11B2 were resuspended to 1×10^5 cells/mL, with 100 μL seeded into a 96-well plate.
Day 2: The medium was replaced with DMEM/F12 containing 2.5% charcoal-stripped fetal bovine serum; test compounds were added: 5 μL of test compound was added to the cell culture medium to achieve final concentrations of 10000, 2500, 625, 156.25, 39.06, 9.77, 2.44, 0.61, 0.15, and 0 nM (with a DMSO content of 0.1%).
After one hour, the substrate was added: 30 mM 11-deoxycorticosterone was diluted 1500-fold with culture medium, and 5 μL was dispensed per well to achieve a final concentration of […], followed by incubation for 16 hours.
Day 3: The cell supernatant was collected and added to 200 μL of a methanol solution containing internal standards (internal standards: 35 ng/mL ketoprofen or 7.5 ng/mL carbamazepine or 5 ng/mL diphenhydramine or 10 ng/mL tolbutamide). The mixture was vortexed and centrifuged (4000×g, 4° C., 5 minutes). Then, 100 μL of the supernatant was taken and mixed with 100 μL of pure water. The mixture was centrifuged (4000 g, 4° C., 15 min), and the supernatant was analyzed by ESI-LCMS/MS. • 4) Data analysis:
Ratio=Aldosterone peak area/Internal standard peak area
Control activity %=(Ratio test compound/Ratio DMSO)×100%
“Ratio test compound” represents the Ratio values at different concentrations of the test compound.
“Ratio DMSO” represents the Ratio value without the addition of the test compound. • X=Log (compound concentration) • Y=Control activity %
(§5) The IC50 of the test compound was determined by fitting to a nonlinear regression equation using XLfit 5.5.0.

human CYP11B1 = target: T7, human CYP11B1 (Homo sapiens, UniProt P15538); assay: In vitro activity assay of monoclonal cells overexpressing human CYP11B1; type: cell-based; details: G402 cells overexpressing human CYP11B1; substrate 11-deoxycortisol 1 μM; 16 hours
T7 construct: expressed in transfected cells; host or cells: human renal leiomyoma G402 cell line (monoclonal cells overexpressing human CYP11B1)
T7 sequence (P15538 25-503): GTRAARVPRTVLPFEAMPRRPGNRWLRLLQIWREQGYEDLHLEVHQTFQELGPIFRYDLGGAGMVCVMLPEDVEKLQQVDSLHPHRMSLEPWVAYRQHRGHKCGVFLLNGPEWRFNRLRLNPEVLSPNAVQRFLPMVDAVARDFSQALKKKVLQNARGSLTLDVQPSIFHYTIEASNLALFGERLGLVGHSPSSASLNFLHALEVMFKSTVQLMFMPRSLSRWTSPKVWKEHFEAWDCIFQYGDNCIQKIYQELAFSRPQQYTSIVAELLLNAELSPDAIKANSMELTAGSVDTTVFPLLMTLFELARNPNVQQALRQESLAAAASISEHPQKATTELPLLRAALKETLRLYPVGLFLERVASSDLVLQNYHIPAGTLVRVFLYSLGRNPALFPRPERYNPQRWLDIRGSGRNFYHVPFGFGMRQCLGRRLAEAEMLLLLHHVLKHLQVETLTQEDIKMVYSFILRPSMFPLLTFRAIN
Procedure: The human renal leiomyoma G402 cell line overexpressing human CYP11B1 was selected to serve as a compound selectivity screening system. Details are as follows: • 1) The cells, reagents, and instrument information were consistent with Experimental Example 1 (activity of monoclonal cells overexpressing human CYP11B2). • 2) Compound details: The test compound was prepared as a […] working concentration using DMSO. • 3) Experimental procedure
Day 1: Cells were digested, and human renal leiomyoma G402 cells overexpressing CYP11B1 were resuspended to 1×10^5 cells/mL, with […] seeded into a 96-well plate.
Day 2: The medium was replaced with DMEM/F12 containing 2.5% charcoal-stripped fetal bovine serum.
After one hour, the substrate was added: 30 mM 11-deoxycortisol was diluted 1500-fold with culture medium, and 5 μL was dispensed per well to achieve a final concentration of 1 μM, followed by incubation for 16 hours.
Day 3: The cell supernatant was collected and added to 200 μL of a methanol solution containing internal standards (internal standards: 35 ng/mL ketoprofen or 7.5 ng/mL carbamazepine or 5 ng/mL diphenhydramine or 10 ng/mL tolbutamide). […] The mixture was centrifuged (4000 g, 4° C., 15 min), and the supernatant was analyzed by ESI-LCMS/MS. • 4) Data analysis: […]
as §5

[6] = In vivo pharmacokinetics study in rats; set-up: species or system SD rat; details: rat, plasma, male SD rats, oral 2 mg/kg

T5 sequence (P11712 whole entry): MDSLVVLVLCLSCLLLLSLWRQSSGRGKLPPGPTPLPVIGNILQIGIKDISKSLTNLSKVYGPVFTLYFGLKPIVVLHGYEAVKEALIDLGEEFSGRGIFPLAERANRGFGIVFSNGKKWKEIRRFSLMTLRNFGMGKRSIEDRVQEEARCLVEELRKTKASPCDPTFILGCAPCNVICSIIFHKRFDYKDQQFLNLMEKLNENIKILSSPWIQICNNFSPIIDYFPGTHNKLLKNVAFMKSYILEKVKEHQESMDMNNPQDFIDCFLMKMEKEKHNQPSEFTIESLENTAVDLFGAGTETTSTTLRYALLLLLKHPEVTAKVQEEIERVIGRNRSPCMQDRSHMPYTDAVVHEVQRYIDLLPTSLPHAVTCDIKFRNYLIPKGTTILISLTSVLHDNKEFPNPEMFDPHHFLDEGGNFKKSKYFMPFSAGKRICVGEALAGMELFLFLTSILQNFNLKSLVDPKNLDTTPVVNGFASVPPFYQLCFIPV
T1 sequence (P08684 whole entry): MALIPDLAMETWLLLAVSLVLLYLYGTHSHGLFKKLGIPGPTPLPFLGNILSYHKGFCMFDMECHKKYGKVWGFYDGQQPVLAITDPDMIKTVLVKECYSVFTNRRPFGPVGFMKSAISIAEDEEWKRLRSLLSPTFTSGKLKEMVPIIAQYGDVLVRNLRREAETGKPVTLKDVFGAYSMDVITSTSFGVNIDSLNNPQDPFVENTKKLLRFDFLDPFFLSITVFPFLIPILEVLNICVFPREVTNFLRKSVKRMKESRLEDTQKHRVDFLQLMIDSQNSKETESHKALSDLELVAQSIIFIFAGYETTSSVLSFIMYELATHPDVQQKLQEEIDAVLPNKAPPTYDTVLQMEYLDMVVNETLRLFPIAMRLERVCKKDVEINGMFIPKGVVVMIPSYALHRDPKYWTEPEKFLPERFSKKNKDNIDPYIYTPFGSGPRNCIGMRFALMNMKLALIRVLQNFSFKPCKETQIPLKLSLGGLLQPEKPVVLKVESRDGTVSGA
T2 sequence (P33261 whole entry): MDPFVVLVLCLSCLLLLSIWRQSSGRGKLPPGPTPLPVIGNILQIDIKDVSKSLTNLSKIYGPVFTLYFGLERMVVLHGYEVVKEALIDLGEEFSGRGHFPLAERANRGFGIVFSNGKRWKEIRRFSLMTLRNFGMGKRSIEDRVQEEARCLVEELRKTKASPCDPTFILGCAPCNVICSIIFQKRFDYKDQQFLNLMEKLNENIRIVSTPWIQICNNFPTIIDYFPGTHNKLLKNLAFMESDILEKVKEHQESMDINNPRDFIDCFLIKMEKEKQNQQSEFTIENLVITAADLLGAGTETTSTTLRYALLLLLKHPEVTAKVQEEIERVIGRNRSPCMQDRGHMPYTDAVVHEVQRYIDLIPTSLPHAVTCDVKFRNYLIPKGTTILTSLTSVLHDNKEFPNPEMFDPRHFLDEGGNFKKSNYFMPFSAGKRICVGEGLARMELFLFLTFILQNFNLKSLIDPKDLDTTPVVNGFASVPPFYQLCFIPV
T4 sequence (P10635 whole entry): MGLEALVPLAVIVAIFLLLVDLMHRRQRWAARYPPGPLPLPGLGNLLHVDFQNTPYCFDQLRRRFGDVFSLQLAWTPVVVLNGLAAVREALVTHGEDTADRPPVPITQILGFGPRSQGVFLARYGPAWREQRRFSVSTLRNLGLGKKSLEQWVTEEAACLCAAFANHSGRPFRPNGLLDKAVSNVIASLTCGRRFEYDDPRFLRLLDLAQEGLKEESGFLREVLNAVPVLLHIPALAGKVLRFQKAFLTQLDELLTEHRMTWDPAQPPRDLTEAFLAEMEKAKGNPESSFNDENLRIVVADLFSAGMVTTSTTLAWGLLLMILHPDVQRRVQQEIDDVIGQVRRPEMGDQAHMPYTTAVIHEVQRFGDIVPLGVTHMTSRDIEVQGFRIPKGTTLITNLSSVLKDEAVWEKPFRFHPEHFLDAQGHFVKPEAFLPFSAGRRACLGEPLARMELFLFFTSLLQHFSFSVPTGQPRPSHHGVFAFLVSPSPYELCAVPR

Compound | IC50 (CYP3A4) [µM] | IC50 (CYP2C19) [µM] | CLint scaled at 1 µM [1] [mL/min/kg] | fraction unbound at 4 h [2] | efflux ratio at 2.5 h, 2 µM [3] | Papp A→B at 2.5 h, 2 µM [3] [×10⁻⁶ cm/s] | fraction unbound at 4 h [4] | IC50 (CYP1A2) [µM] | IC50 (CYP2D6) [µM] | fraction unbound at 4 h [5] | IC50 (CYP2C9) [µM] | IC50 (human CYP11B2) [µM] | IC50 (human CYP11B1) [µM] | bioavailability [6] [%] | half-life [6] [h] | Cmax [6] [µM] | AUC(0-t) at 24 h ([6]; read-out: AUC0-24 h) [µM·h]
CCC(=O)NC1CCCc2c(-c3ccc4c(c3)OCC(=O)N4C)cncc21 (single isomer, unassigned) [Compound 011] | > 50 | > 50 | < 8.6 | 0.139 | 0.89 | 24.3 | 0.245 | > 50 | > 50 | 0.245 | > 50 | – | – | – | – | – | –
CCC(=O)N[C@@H]1CCCc2c(-c3cnc4c(ccc(=O)n4C)c3)cncc21 (single isomer, unassigned) [Compound 022] | – | – | – | – | – | – | – | – | – | – | – | 0.0487 | 6.89 | – | – | – | –
CCC(=O)NC1CCOc2c(-c3cc4c(s3)N(C)C(=O)CC4)cncc21 (single isomer, unassigned) [Compound 046] | > 50 | > 50 | < 8.6 | – | 1.17 | 18 | 0.304 | > 50 | > 50 | 0.166 | > 50 | – | – | 71 | 3.23 | 7.86 | 36.6
